Results reported in PubChem BioAssay AID1944 (The Scripps Research Institute Molecular Screening Center, 2009).
Activity calls are given as the source filed them. The rule behind the calls is not given here.

target: Replicase polyprotein 1ab (Severe acute respiratory syndrome coronavirus) (UniProt P0C6X7); test: papain-like protease inhibition, dose response, biochemical, luminescence, counter-screen for SARS-CoV 3CLpro inhibitor project (AID 1944); settings: SARS-CoV PLpro enzymatic assay

With COc1cc(C2CC(c3cccs3)=NN2C(=O)CCl)ccc1OC(F)F (centres undefined) as the molecule, how does the IC50 read?
Its IC50 is > 59.6 µM (inactive).

How did the IC50 turn out when COc1ccc(C2C(O)C(c3c[nH]c4ccccc34)=NN2C(=O)CCl)cc1 (centres undefined) was run?
Its IC50 is > 59.6 µM (inactive).

How did the IC50 turn out when Nc1ncc(Br)cc1S(=O)(=O)Nc1cc(C(F)(F)F)cc(C(F)(F)F)c1 was run?
The IC50 was > 59.6 µM (inactive).

For CC(=O)Nc1ccc(N(C(=O)Cn2nnc3ccccc32)C(C(=O)NC2CCCC2)c2ccc(O)c(O)c2)cc1 (centres undefined), which IC50 is on record?
Its IC50 is > 59.6 µM (inactive).

For O=C(OCC(=O)N1c2ccccc2Sc2ccccc21)c1cccnc1, which IC50 is on record?
The IC50 was > 59.6 µM (inactive).

Which IC50 does the source give for Cc1ccc2[nH]c3c(c2c1)CN(C(=O)CN1c2ccc(F)cc2CCC1C)CC3 (centres undefined) here?
The IC50 was > 59.6 µM (inactive).

Which IC50 does the source give for COc1cccc(C(C(=O)Nc2ccc(F)cc2)N(C(=O)Cn2nnc3ccccc32)C2CC2)c1 (centres undefined) here?
The IC50 was > 59.6 µM (inactive).

How did the IC50 turn out when Cn1cnc2cc(NC(=O)c3ccc(Cl)cc3)ccc21 was run?
Its IC50 is 3.28 µM.

How did the IC50 turn out when O=C(/C=C/c1cccs1)Nc1scc(-c2ccccc2)c1C(=O)O was run?
Its IC50 is 0.0455 µM.

For COc1cc(/C=N\NC(=O)Cn2nnc3ccccc32)cc(OC)c1OC, which IC50 is on record?
Its IC50 is > 59.6 µM (inactive).

COc1ccc(N(Cc2cc(=O)[nH]c3ccccc23)C(=O)CCl)cc1 was tested. Which IC50 did it give?
Its IC50 is > 59.6 µM (inactive).

With CCn1nc(-c2ccccc2)nc2c(=O)n(C)c(=O)nc1-2 as the molecule, how does the IC50 read?
Its IC50 is 0.165 µM.

With CCC(C)(C)NC(=O)C(c1ccc(O)cc1)N(C(=O)Cn1nnc2ccccc21)c1ccc(NC(C)=O)cc1 (centres undefined) as the molecule, how does the IC50 read?
Its IC50 is > 59.6 µM (inactive).

Which IC50 does the source give for O=C(c1cc(=O)[nH]c2ccccc12)N1CCN(c2ccccc2)CC1 here?
Its IC50 is > 59.6 µM (inactive).

With NC(=O)CCn1c(C(=O)c2cccc([N+](=O)[O-])c2)c2ccccc2[n+]1[O-] as the molecule, how does the IC50 read?
Its IC50 is > 59.6 µM (inactive).

With O=C1C(=O)N(C/C=C/c2ccccc2)c2ccccc21 as the molecule, how does the IC50 read?
The IC50 was > 59.6 µM (inactive).

For O=C(N/N=C\c1c(O)ccc2ccccc12)c1cncc(Br)c1, which IC50 is on record?
Its IC50 is 8.21 µM.

How did the IC50 turn out when Cc1sc(NC(=O)CCl)c(C(=O)c2ccccc2)c1C was run?
The IC50 was > 59.6 µM (inactive).

How did the IC50 turn out when CCC(C)(C)NC(=O)C(c1cccn1C)N(C(=O)Cn1nnc2ccccc21)c1ccc(NC(C)=O)cc1 (centres undefined) was run?
Its IC50 is > 59.6 µM (inactive).

How did the IC50 turn out when O=C(NCc1ccco1)C(c1ccco1)N(C(=O)Cn1nnc2ccccc21)c1ccc2c(c1)CCC2 (centres undefined) was run?
The IC50 was > 59.6 µM (inactive).

Cc1ccc(C(=O)c2c3ccc(C(F)(F)F)cc3[n+]([O-])n2CCC(N)=O)cc1 was tested. Which IC50 did it give?
The IC50 was > 59.6 µM (inactive).

COc1cccc(/C=N/NC(=S)Nc2cccnc2)c1 was tested. Which IC50 did it give?
The IC50 was “inactive”.

For O=C(CCl)N(CCc1ccccc1)CCc1ccccc1, which IC50 is on record?
The IC50 was “inactive”.

For O=C(/C=C/c1c(F)cccc1Cl)Nc1cccnc1, which IC50 is on record?
Its IC50 is 0.0628 µM.

With CCOc1ccc2c(c1)C(=O)C(=O)N2CC1COc2ccccc2O1 (centres undefined) as the molecule, how does the IC50 read?
The IC50 was > 59.6 µM (inactive).

Which IC50 does the source give for O=C1C(=O)N(CCCc2ccccc2)c2ccccc21 here?
Its IC50 is “inactive”.

For Cc1ccc(C2=NN(C(=O)CCl)C(c3ccco3)C2)o1 (centres undefined), which IC50 is on record?
The IC50 was > 59.6 µM (inactive).

Which IC50 does the source give for Cc1ccc(C(=O)O)cc1NC(=S)NC(=O)c1ccc(COc2ccccc2)cc1 here?
The IC50 was 2.48 µM.

For COC(=O)c1ccc(OC(=O)CN2C(=O)c3ccccc3C2=O)cc1, which IC50 is on record?
The IC50 was “inactive”.

CC1(C)C2CC=C(/C=N/NC(=S)Nc3cccnc3)C1C2 (centres undefined) was tested. Which IC50 did it give?
The IC50 was > 59.6 µM (inactive).

For O=C(Oc1cccnc1)c1ccc(Cl)cc1, which IC50 is on record?
Its IC50 is 7.99 µM.

For Cc1cc(C)n(C(=O)c2ccc(C)c(Br)c2)n1, which IC50 is on record?
Its IC50 is “inactive”.

How did the IC50 turn out when Cc1ccc(/C=C/C(=O)c2cc(Br)ccc2OC(=O)c2ccco2)cc1 was run?
Its IC50 is > 59.6 µM (inactive).

Which IC50 does the source give for COc1cccc(C(C(=O)NCC2CCCO2)N(C(=O)Cn2nnc3ccccc32)c2ccc(NC(C)=O)cc2)c1 (centres undefined) here?
The IC50 was > 59.6 µM (inactive).

How did the IC50 turn out when CCC(C)c1ccc(N(C(=O)c2ccco2)C(C(=O)NC2CCCC2)c2cccnc2)cc1 (centres undefined) was run?
The IC50 was “inactive”.

How did the IC50 turn out when Cc1cc(=O)oc2cc(OC(=O)c3ccco3)ccc12 was run?
Its IC50 is > 59.6 µM (inactive).

Which IC50 does the source give for O=C(Oc1ccc(Cl)cc1N1C(=O)CCC1=O)c1ccco1 here?
Its IC50 is > 59.6 µM (inactive).

For COc1ccc(C(=O)Oc2cccnc2)cc1, which IC50 is on record?
The IC50 was > 59.6 µM (inactive).

O=Cc1cn(Cc2ccccc2)nc1-c1cccnc1 was tested. Which IC50 did it give?
The IC50 was > 59.6 µM (inactive).

How did the IC50 turn out when Cc1ccc(C(=O)n2cnc3ccccc32)cc1C was run?
The IC50 was 9.11 µM.

For Cc1ccc(C2CC(c3cccs3)=NN2C(=O)CCl)cc1 (centres undefined), which IC50 is on record?
The IC50 was “inactive”.

Which IC50 does the source give for CCc1nc(N2CCN(C(=O)CCl)CC2)c2c3c(sc2n1)CC(C)CC3 (centres undefined) here?
The IC50 was > 59.6 µM (inactive).

How did the IC50 turn out when COc1ccc2c(c1)C(=O)C(=O)N2CC1COc2ccccc2O1 (centres undefined) was run?
The IC50 was > 59.6 µM (inactive).

CCc1ccc2c(c1)C(NC(C)=O)C(=O)N2CCN1CCOCC1 (centres undefined) was tested. Which IC50 did it give?
Its IC50 is > 59.6 µM (inactive).

Cc1ccc(-c2cc(NC(=O)c3ccccc3[N+](=O)[O-])n[nH]2)cc1 was tested. Which IC50 did it give?
Its IC50 is “inactive”.

Which IC50 does the source give for N#CCC(=O)N/N=C/c1c(-c2ccccc2)n(-c2ccccc2)c2ccccc12 here?
The IC50 was > 59.6 µM (inactive).

With Cn1nc(-c2ccc(Cl)cc2)nc2c(=O)n(C)c(=O)nc1-2 as the molecule, how does the IC50 read?
Its IC50 is 0.111 µM.

O=C(O)c1[nH]c2ccccc2c1C(c1cc(Br)ccc1O)c1c(C(=O)O)[nH]c2ccccc12 was tested. Which IC50 did it give?
Its IC50 is 9.17 µM.

With Cc1ccc(C(=O)c2c3ccccc3[n+]([O-])n2CCC(N)=O)cc1 as the molecule, how does the IC50 read?
The IC50 was 8.04 µM.
